Assay results taken from patent US8466176B2 (priority 2008, dated 2013).

Experiment: logP(HCOOH) reported with HPLC/MS
Details: HCOOH (formic acid), logP(HCOOH), HPLC/MS

Row | SMILES | chromatographic logP
1 | CC(C)(C)OC(=O)N(CCC1CCCCC1)c1cccc(CBr)n1 [tert-butyl [6-(bromomethyl)pyridin-2-yl](2-cyclohexylethyl)carbamate] | 6.79
2 | CON(C)C(=O)c1cccc(N(C)C)c1 [3-(dimethylamino)-N-methoxy-N-methylbenzamide] | 0.95
3 | Cc1c(F)ccc(Br)[n+]1[O-] [6-bromo-3-fluoro-2-methylpyridine 1-oxide] | 0.56
4 | CSc1cccc(C(=NOCc2cccc(N)n2)c2nnnn2C)c1 [6-{[({[3-(methylsulfanyl)phenyl](1-methyl-1H-tetrazol-5-yl)methylene}amino)oxy]methyl}pyridin-2-amine] | 1.42

Same assay, conditions: HPLC, logP(HCOOH), HPLC/MS

Row | SMILES | chromatographic logP
5 | Cn1nnnc1C(=NOCc1cccc(CN)n1)c1ccccc1 [Example 52, 1-{6-[({[(1-methyl-1H-tetrazol-5-yl)(phenyl)methylene]amino}oxy)methyl]pyridin-2-yl}methanamine] | 1.23
6 | Cc1sc(Br)nc1CBr [2-bromo-4-(bromomethyl)-5-methyl-1,3-thiazole] | 2.64

Same assay, conditions: HPLC/MS

Row | SMILES | logP(HCOOH) | chromatographic logP
7 | CCCCCONc1cccc(CON=C(c2ccccc2)c2nnnn2C)n1 [Example 269, 6-[({[(1-methyl-1H-tetrazol-5-yl)(phenyl)methylene]amino}oxy)methyl]-(pentyloxy)pyridin-2-amine] | 3.87 | –
8 | COC(=O)c1nc(Br)sc1C [methyl 2-bromo-5-methyl-1,3-thiazole-4-carboxylate] | – | 1.84

Same assay, conditions: formic acid (HCOOH), logP(HCOOH), HPLC/MS

Row | SMILES | chromatographic logP
9 | Cn1nnnc1C(=NOCc1csc(NCCC2CCCCC2)n1)c1ccccc1 [Example 161, N-(2-cyclohexylethyl)-4-[({[(1-methyl-1H-tetrazol-5-yl)(phenyl)methylene]amino}oxy)methyl]-1,3-thiazol-2-amine] | 3.62

Same assay, conditions: logP(HCOOH), HPLC/MS

Row | SMILES | chromatographic logP
10 | CC(C)(C)OC(=O)Nc1cccc(Br)n1 [tert-butyl (6-bromopyridin-2-yl)carbamate] | 4.11
11 | CC(C)(C)OC(=O)N(CCC1CCCCC1)c1cccc(CO)n1 [tert-butyl (2-cyclohexylethyl)[6-(hydroxymethyl)pyridin-2-yl]carbamate] | 4.49

Same assay, conditions: method [a]: HPLC on reversed phase columns, pH 2.3 with 0.1% phosphoric acid and acetonitrile as eluent

Row | SMILES | log p
12 | Cn1nnnc1C(=NOCc1cccc(NCCC2CC(F)(F)C2(F)F)n1)c1ccccc1 (stereo not shown) [Example 143] | 2.51^[a]
13 | COC=CC#Cc1nc(CON=C(c2ccccc2)c2nnnn2C)cs1 [Example 136] | 3.06^[a]
14 | Cn1nnnc1C(=NOCc1cccc(N(CCC2CC(F)(F)C2(F)F)C(=O)OC(C)(C)C)n1)c1ccccc1 (stereo not shown) [Example 140] | 5.05^[a]

Same assay, conditions: method [b]: LC-MS at pH 2.7, 0.1% formic acid in water and acetonitrile, linear gradient 10% to 95% acetonitrile

Row | SMILES | log p
15 | CCCCC(=O)NCc1cccc(CON=C(c2ccccc2)c2nnnn2C)n1 [Example 57] | 2.56^[b]
16 | Cc1nnnn1C(=NOCc1cccc(NC(=S)NCc2ccc(Cl)c(Cl)c2)n1)c1ccccc1 [Example 4] | 4.09^[b]
17 | CC(C)c1nc(CON=C(c2ccccc2)c2nnnn2C)cs1 [Example 78] | 3.39^[b]
18 | Cn1nnnc1C(=NOCc1nc(C#CCCCC#N)ccc1F)c1ccccc1 [Example 103] | 3.11^[b]
19 | CC(=O)N(CCC1CCCCC1)c1cccc(CON=C(c2ccccc2)c2nnnn2C)n1 [Example 76] | 4.16^[b]
20 | Cn1nnnc1C(=NOCc1cccc(C#CCn2ccc(C(F)(F)F)n2)n1)c1ccccc1 [Example 110] | 3.62^[b]
21 | Cn1nnnc1C(=NOCc1nc(C#CC2CCCC2)sc1Cl)c1ccccc1 [Example 116] | 5.31^[b]
22 | Cc1cccc(CON=C(c2ccccc2)c2nnnn2C)n1 [Example 42] | 1.67^[b]
23 | CCCCC#Cc1nc(CON=C(c2ccccc2)c2nnnn2C)ccc1OC [Example 127] | 3.96^[b]
24 | COc1ccc(CON=C(c2ccccc2)c2nnnn2C)nc1C#CCCCc1ccccc1 [Example 130] | 4.44^[b]
25 | CN(C)C(=O)c1cccc(CON=C(c2ccccc2)c2nnnn2C)n1 [Example 77] | 2.04^[b]
26 | Cn1nnnc1C(=NOCc1nc(C#CCCC2CCCCC2)ccc1F)c1ccccc1 [Example 107] | 5.68^[b]
27 | COc1ccc(CON=C(c2ccccc2)c2nnnn2C)nc1C#CCC1CCCC1 [Example 128] | 4.46^[b]
28 | COc1ccc(CON=C(c2ccccc2)c2nnnn2C)nc1C#CCC1CCCCC1 [Example 129] | 4.84^[b]
29 | Cn1nnnc1C(=NOCc1ncc(C(F)(F)F)cc1Cl)c1ccccc1 [Example 43] | 3.76^[b]
30 | Cn1nnnc1C(=NOCc1nc(C#CCc2ccccc2)ccc1F)c1ccccc1 [Example 100] | 4.24^[b]
31 | Cn1nnnc1C(=NOCc1cccc(CNC(=O)CCc2ccccc2)n1)c1ccccc1 [Example 58] | 2.82^[b]
32 | CCCCCCCCNC(=S)Nc1cccc(CON=C(c2ccccc2)n2nnnc2C)n1 [Example 6] | 4.97^[b]
33 | Cc1nnnn1C(=NOCc1cccc(NC(=S)NC2CCCCC2)n1)c1ccccc1 [Example 8] | 3.81^[b]
34 | CCSCC#Cc1ccc(F)c(CON=C(c2ccccc2)c2nnnn2C)n1 [Example 102] | 3.85^[b]
35 | Cc1nnnn1C(=NOCc1cccc(NC(=S)NCCc2ccccc2)n1)c1ccccc1 [Example 7] | 3.67^[b]
36 | CCN(C)C=Nc1cccc(CON=C(c2ccccc2)n2nnnc2C)n1 [Example 3] | 1.43^[b]

Same assay, conditions: method [b]: LC-MS at pH 2.7 with 0.1% formic acid in water and acetonitrile (0.1% formic acid), linear gradient 10% to 95% acetonitrile

Row | SMILES | log p
37 | CCCCON(C(=O)OC(C)(C)C)c1cccc(CON=C(c2ccccc2)c2nnnn2C)n1 [Example 280] | 4.75^[b]
38 | CCCCCONc1cccc(CON=C(c2ccccc2)c2nnnn2C)n1 [Example 269, 6-[({[(1-methyl-1H-tetrazol-5-yl)(phenyl)methylene]amino}oxy)methyl]-(pentyloxy)pyridin-2-amine] | 3.87^[b]
39 | CSc1cccc(C(=NOCc2csc(NCCCc3ccccc3)n2)c2nnnn2C)c1 [Example 305] | 3.71^[b]
40 | Cn1nnnc1C(=NOCc1cccc(NCC2CC2)n1)c1cccc(F)c1 [Example 290] | 1.98^[b]
41 | Cn1nnnc1C(=NOCc1cccc(NCCC2CCCCC2)n1)c1cccc(F)c1 [Example 291] | 3.27^[b]

Same assay, conditions: method [b]: LC-MS, pH 2.7 with 0.1% formic acid in water and acetonitrile (0.1% formic acid), linear gradient 10% to 95% acetonitrile

Row | SMILES | log p
42 | Cc1sc(C#CCC2CCCC2)nc1CON=C(c1ccccc1)c1nnnn1C [Example 185] | 5.2^[b]
43 | CCCCOc1ccc(C#Cc2nc(CON=C(c3ccccc3)c3nnnn3C)cs2)cc1 [Example 258] | 5.44^[b]
44 | Cn1nnnc1C(=NOCc1cccc(C#Cc2ccsc2)n1)c1ccccc1 [Example 207] | 3.83^[b]
45 | Cn1nnnc1C(=NOCc1csc(C#Cc2cccc(C#N)c2)n1)c1ccccc1 [Example 259] | 3.76^[b]
46 | COc1ccccc1C#Cc1cccc(CON=C(c2ccccc2)c2nnnn2C)n1 [Example 222] | 3.89^[b]
47 | COc1cccc(C#Cc2cccc(CON=C(c3ccccc3)c3nnnn3C)n2)c1 [Example 221] | 4.09^[b]
48 | CCCC#Cc1nc(CON=C(c2ccccc2)c2nnnn2C)c(C)s1 [Example 182] | 4.24^[b]
49 | Cc1sc(C#CCC2CCCCC2)nc1CON=C(c1ccccc1)c1nnnn1C [Example 184] | 5.62^[b]
50 | Cn1nnnc1C(=NOCc1cccc(C#Cc2ccc(OC(F)(F)F)cc2)n1)c1ccccc1 [Example 220] | 4.75^[b]
51 | Cn1nnnc1C(=NOCc1cccc(C#CCC2CCCCC2)n1)c1ccccc1 [Example 213] | 5.17^[b]
52 | Cn1nnnc1C(=NOCc1cccc(C#Cc2cccc(C#N)c2)n1)c1ccccc1 [Example 225] | 3.69^[b]
53 | Cn1nnnc1C(=NOCc1cccc(NCC2CC2(Cl)Cl)n1)c1ccccc1 (stereo not shown) [Example 205] | 2.75^[b]
54 | Cn1nnnc1C(=NOCc1csc(C#CCCCc2ccccc2)n1)c1cccc(F)c1 [Example 150] | 4.89^[b]
55 | Cn1nnnc1C(=NOCc1cccc(C#Cc2cccs2)n1)c1ccccc1 [Example 206] | 3.94^[b]
56 | Cn1nnnc1C(=NOCc1cccc(C#Cc2cccc(OC(F)(F)F)c2)n1)c1ccccc1 [Example 249] | 4.75^[b]
57 | Cn1nnnc1C(=NOCc1csc(C#Cc2ccccc2F)n1)c1ccccc1 [Example 260] | 4.15^[b]
58 | Cn1nnnc1C(=NOCc1cccc(C#CCC2CCCC2)n1)c1ccccc1 [Example 236] | 4.78^[b]
59 | Cn1nnnc1C(=NOCc1cccc(C#Cc2ccc(Oc3ccccc3)cc2)n1)c1ccccc1 [Example 234] | 5.08^[b]
60 | Cn1nnnc1C(=NOCc1cccc(C#Cc2ccc(-c3ccccc3)cc2)n1)c1ccccc1 [Example 216] | 5.11^[b]
61 | Cn1nnnc1C(=NOCc1cccc(C#Cc2ccc(C(C)(C)C)cc2)n1)c1ccccc1 [Example 245] | 5.44^[b]
62 | CCc1ccc(C#Cc2nc(CON=C(c3ccccc3)c3nnnn3C)ccc2OC)cc1 [Example 134] | 4.56^[b]
63 | Cn1nnnc1C(=NOCc1csc(C#Cc2ccc(F)cc2)n1)c1ccccc1 [Example 262] | 4.16^[b]
64 | Cn1nnnc1C(=NOCc1csc(C#Cc2ccc(C#N)cc2)n1)c1ccccc1 [Example 191] | 3.76^[b]
65 | Cn1nnnc1C(=NOCc1csc(C#Cc2cccc(F)c2)n1)c1ccccc1 [Example 264] | 4.19^[b]
66 | CCCOC(C)(C)C#Cc1cccc(CON=C(c2ccccc2)c2nnnn2C)n1 [Example 241] | 4.31^[b]
67 | Cn1nnnc1C(=NOCc1cccc(C#Cc2cccc(F)c2)n1)c1ccccc1 [Example 248] | 4.16^[b]
68 | Cn1nnnc1C(=NOCc1cccc(C#Cc2ccc(N3CCCCC3)cc2)n1)c1ccccc1 [Example 232] | 4.81^[b]
69 | CCCC#Cc1nc(CON=C(c2cccc(F)c2)c2nnnn2C)cs1 [Example 151] | 4.09^[b]
70 | CC(C)c1ccc(C#Cc2cccc(CON=C(c3ccccc3)c3nnnn3C)n2)cc1 [Example 229] | 5.14^[b]
71 | Cc1sc(C#CC(C)C)nc1CON=C(c1ccccc1)c1nnnn1C [Example 189] | 4.21^[b]

Same assay, conditions: reversed phase HPLC column, pH 2.7, log p, method [b]: LC-MS at pH 2.7, 0.1% formic acid in water and acetonitrile, linear gradient 10% to 95% acetonitrile

Row | SMILES | chromatographic logP
72 | Cn1nnnc1C(=NOCc1cccc(CN)n1)c1ccccc1 [Example 52, 1-{6-[({[(1-methyl-1H-tetrazol-5-yl)(phenyl)methylene]amino}oxy)methyl]pyridin-2-yl}methanamine] | 1.23

Same assay, conditions: reversed phase HPLC column, pH 2.7, log p, method [b]: LC-MS, pH 2.7 with 0.1% formic acid in water and acetonitrile (0.1% formic acid), linear gradient 10% to 95% acetonitrile

Row | SMILES | chromatographic logP
73 | Cn1nnnc1C(=NOCc1csc(NCCC2CCCCC2)n1)c1ccccc1 [Example 161, N-(2-cyclohexylethyl)-4-[({[(1-methyl-1H-tetrazol-5-yl)(phenyl)methylene]amino}oxy)methyl]-1,3-thiazol-2-amine] | 3.62
